Results: patent US11065253B2, “Arylquinazolines” (Merck Patent GmbH, priority 2013, dated 2021)
Read-outs that look alike come from different tables or passages of the source. Each block holds one compound with its values, some of them ahead of it.

System: phospho-serine 2056 DNA-PK in HCT116 cells
Assay: DNA-PK phosphorylation at serine 2056 (cellular), ELISA in bleomycin-treated HCT116 cells
Assay type: cell-based
Details: read-out: IC50 pDNA-PK
Protocol: HCT116 cells were cultivated at 37° C. and 10% CO2 in MEM alpha medium with 10% of foetal calf serum and 2 mM glutamine. The cells were detached from the base of the culture vessels with the aid of trypsin/EDTA, centrifuged off in centrifuge tubes, taken up in fresh medium, and the cell density was determined. 100,000 cells were sown in 1 ml of culture medium per cavity of a 24-well cell culture plate and cultivated overnight. Next day, 10 μM bleomycin (DNA intercalator and inductor of DNA double-strand breaks) and test substances in fresh culture medium were added to the cells, and these were cultivated for a further six hours. […] The 96-well ELISA plates were subsequently treated with a detection antibody (Abcam ab79444: total DNA-PK) and a streptavidin-HRP conjugate. The development of the enzymatic reaction was carried out with the aid of a chemiluminescent reagent, the chemiluminescence was measured with the aid of a Mithras LB940. The signals with the phospho-DNA-PK-specific antibody were standardised to the signal with the antibody against the total protein DNA-PKc. […] The DMSO control was used as blank.

[1] = Homo sapiens, HCT-116, phospho-serine 2056 DNA-PK, bleomycin-treated HCT116 cells
[2] = Homo sapiens, HCT-116, cellular DNA-PK phosphorylation at serine 2056, HCT116 cells
[3] = cellular DNA-PK phosphorylation at serine 2056, HCT116 cells
[4] = Homo sapiens, HCT-116, 6 h, cellular, HCT116 cells, 10 μM bleomycin, six hours
[5] = phospho-serine 2056 DNA-PK, bleomycin-treated HCT116 cells, class symbols A-D
[6] = Homo sapiens, HCT-116, phospho-serine 2056 DNA-PK, bleomycin-treated HCT116 cells, class symbols A-D

IC50 [1]: 0.5 to 5 µM
Compound: NC(=O)C(c1cc(-c2ncnc3cc(N4CCOCC4)ccc23)c(F)cc1F)c1nccn2cccc12 (centres unmarked) [Example 348, 2-[2,4-Difluoro-5-(7-morpholin-4-yl-quinazolin-4-yl)-phenyl]-2-pyrrolo-[1,2-a]pyrazin-1-yl-acetamide]

IC50 [2]: < 0.5 µM
Compound: OC(c1cc(-c2ncnc3cc(N4CCOCC4)ccc23)ccc1Cl)c1ncnc2ccoc12 (centres unmarked) [Example 414, [2-Chloro-5-(7-morpholin-4-yl-quinazolin-4-yl)-phenyl]furo[3,2-d}-pyrimidin-4-yl-methanol (Ena 2)]

IC50 [1]: 0.5 to 5 µM
Compound: Cc1cnc(C(O)c2cc(-c3ncnc4cc(N5CCOCC5)ccc34)c(F)cc2F)c(C)n1 (centres unmarked) [Example 355, [2,4-Difluoro-5-(7-morpholin-4-yl-quinazolin-4-yl)-phenyl]-(3,5-dimethyl-pyrazin-2-yl)methanol]

IC50 [3]: < 0.5 µM
Compound: OC(c1cccnn1)c1cc(-c2ncnc3cc(N4CCOCC4)ccc23)ccc1Cl (centres unmarked) [Example 479, [2-Chloro-5-(7-morpholin-4-yl-quinazolin-4-yl)-phenyl]pyridazin-3-yl-methanol]

IC50 [1]: < 0.5 µM
Compound: OC(c1ccc(F)c(-c2ncnc3cc(N4CCOCC4)ccc23)c1)c1nncc2ccsc12 (centres unmarked) [Example 332, [4-Fluoro-3-(7-morpholin-4-yl-quinazolin-4-yl)-phenyl]thieno[2,3-d}-pyridazin-7-yl-]

IC50 [4]: 0.5 to 5 µM
Compound: Cc1ccc(C(O)c2ccc(F)c(-c3ncnc4cc(N5CCOCC5)ccc34)c2)nn1 (centres unmarked) [Example 70, [4-Fluoro-3-(7-morpholin-4-yl-quinazolin-4-yl)phenyl]-(6-methylpyridazin-3-yl)methanol]

IC50 [4]: 0.5 to 5 µM
Compound: O=c1ccc(C(O)c2ccc(F)c(-c3ncnc4cc(N5CCOCC5)ccc34)c2)n[nH]1 (centres unmarked) [Example 76, 6-{[4-Fluoro-3-(7-morpholin-4-yl-quinazolin-4-yl)phenyl]-hydroxymethyl}-2H-pyridazin-3-one]

IC50 [2]: < 0.5 µM
Compound: OC(c1ccc(F)c(-c2ncnc3cc(N4CCOCC4)ccc23)c1)c1ncnc2sccc12 (centres unmarked) [Example 437, [4-Fluoro-3-(7-morpholin-4-yl-quinazolin-4-yl)-phenyl]thieno[2,3-d}-pyrimidin-4-yl-methanol]

IC50 [1]: < 0.5 µM
Compound: Cc1cnc(C(O)c2ccc(F)c(-c3ncnc4cc(N5CCOCC5)ccc34)c2)c(C)n1 (centres unmarked) [Example 354, (3,5-Dimethyl-pyrazin-2-yl)-[4-fluoro-3-(7-morpholin-4-yl-quinazolin-4-yl)-phenyl]methanol]

IC50 [2]: < 0.5 µM
Compound: OC(c1cc(-c2ncnc3cc(N4CCOCC4)ccc23)ccc1F)c1ncnc2sccc12 (centres unmarked) [Example 406, [2-Fluoro-5-(7-morpholin-4-yl-quinazolin-4-yl)-phenyl]thieno[2,3-d}-pyrimidin-4-yl-methanol]

IC50 [5]: < 0.5 µM
Compound: CC(C#N)Oc1ccc(C(O)c2cc(-c3ncnc4cc(N5CCOCC5)ccc34)c(F)cc2Cl)nn1 (centres unmarked) [Example 101, 2-(6-{[2-Chloro-4-fluoro-5-(7-morpholin-4-yl-quinazolin-4-yl)-phenyl]hydroxy-methyl}pyridazin-3-yloxy)propionitrile]

Compound: OCc1csc(C(O)c2cc(-c3ncnc4cc(N5C6CCC5COC6)ccc34)c(F)cc2Cl)n1 (centres unmarked) [Example 187, {2-Chloro-4-fluoro-5-[7-(3-oxa-8-aza-bicyclo[3.2.1]oct-8-yl)quinazolin-4-yl]-phenyl}-(4-hydroxy-methylthiazol-2-yl)-methanol]
IC50 [6]: 10 to 30 µM

IC50 [4]: 10 to 30 µM
Compound: NCCn1nc(C(O)c2cc(-c3ncnc4cc(N5CCOCC5)ccc34)c(F)cc2Cl)ccc1=O (centres unmarked) [Example 94, 2-(2-Amino-ethyl)-6-{[2-Chloro-4-fluoro-5-(7-morpholin-4-yl-quinazolin-4-yl)phenyl]-hydroxy-methyl}-2H-pyridazin-3-one]

Compound: COc1nccnc1C(O)c1cc(-c2ncnc3cc(N4CCOCC4)ccc23)ccc1Cl (centres unmarked) [Example 410, [2-Chloro-5-(7-morpholin-4-yl-quinazolin-4-yl)-phenyl]-(3-methoxy-pyrazin-2-yl)-methanol (Ena 2)]
IC50 [2]: < 0.5 µM

IC50 [6]: 5 to 10 µM
Compound: Cn1nc(C(O)c2ccc(F)c(-c3ncnc4cc(N5CCOCC5)ccc34)c2F)ccc1=O (centres unmarked) [Example 220, 6-{[2,4-Difluoro-3-(7-morpholin-4-yl-quinazolin-4-yl)-phenyl]hydroxy-methyl}-2-methyl-2H-pyridazin-3-one]

IC50 [6]: 0.5 to 5 µM
Compound: COc1ccc(C(O)c2cc(-c3ncnc4cc(N5CCOCC5)ccc34)c(F)cc2F)cn1 (centres unmarked) [Example 221, [2,4-Difluoro-5-(7-morpholin-4-yl-quinazolin-4-yl)-phenyl]-(6-methoxy-pyridin-3-yl)methanol]

IC50 [5]: 10 to 30 µM
Compound: Cc1nc([C@H](O)c2cnc(F)c(-c3ncnc4cc(N5CCOCC5)ncc34)c2)sc1C [Example 204, (R)-(4,5-Dimethyl-thiazol-2-yl)-[6-fluoro-5-(7-morpholin-4-yl-pyrido[4,3-d}-pyrimidin-4-yl)-pyridin-3-yl]-methanol]

IC50 [4]: 0.5 to 5 µM
Compound: Cc1nccnc1[C@@H](O)c1ccc(F)c(-c2ncnc3cc(N4CCOCC4)ccc23)c1 [Example 82, (S)-[4-Fluoro-3-(7-morpholin-4-yl-quinazolin-4-yl)-phenyl]-(3-methyl-pyrazin-2-yl)methanol]

IC50 [1]: 0.5 to 5 µM
Compound: Cc1cc(C(O)c2cc(-c3ncnc4cc(N5CCOCC5)ccc34)c(F)cc2Cl)n(C)c(=O)c1 (centres unmarked) [Example 339, 6-{[2-Chloro-4-fluoro-5-(7-morpholin-4-yl-quinazolin-4-yl)-phenyl]hydroxy-methyl}-1,4-dimethyl-1H-pyridin-2-one]

IC50 [4]: 10 to 30 µM
Compound: Cn1nccc1C(O)c1ccc(F)c(-c2nc(Cl)nc3cc(N4CCOCC4)ccc23)c1 (centres unmarked) [Example 214, [3-(2-Chloro-7-morpholin-4-yl-quinazolin-4-yl)-4-fluoro-phenyl]-(2-methyl-2H-pyrazol-3-yl)-methanol]

IC50 [3]: < 0.5 µM
Compound: Cn1c(C(O)c2cc(-c3ncnc4cc(N5CCOCC5)ccc34)c(F)cc2Cl)cccc1=O (centres unmarked) [Example 435, 6-{[2-Chloro-4-fluoro-5-(7-morpholin-4-yl-quinazolin-4-yl)-phenyl]hydroxy-methyl}-1-methyl-1H-pyridin-2-one]

IC50 [2]: 0.5 to 5 µM
Compound: OC(c1cc(-c2ncnc3cc(N4CCOCC4)ccc23)ccc1F)c1nccn2ccnc12 (centres unmarked) [Example 372, [2-Fluoro-5-(7-morpholin-4-yl-quinazolin-4-yl)-phenyl]imidazo-[1,2-a]pyrazin-8-yl-methanol]

IC50 [1]: 0.5 to 5 µM
Compound: Cn1nc(C(O)c2ccc(F)c(-c3ncnc4cc(N5CCOCC5)ccc34)c2)ccc1=O (centres unmarked) [Example 326, 6-{[4-Fluoro-3-(7-morpholin-4-yl-quinazolin-4-yl)-phenyl]hydroxy-methyl}-2-methyl-2H-pyridazin-3-one]

IC50 [2]: 0.5 to 5 µM
Compound: OC(c1cc(-c2ncnc3cc(N4CCOCC4)ccc23)c(F)cc1F)c1nnc2ccccn12 (centres unmarked) [Example 379, [2,4-Difluoro-5-(7-morpholin-4-yl-quinazolin-4-yl)-phenyl]-[1,2,4]-triazolo[4,3-a]pyridin-3-ylmethanol]

IC50 [3]: < 0.5 µM
Compound: Cc1cccnc1C(O)c1ccc(F)c(-c2ncnc3cc(N4CCOCC4)ccc23)c1 (centres unmarked) [Example 472, [4-Fluoro-3-(7-morpholin-4-yl-quinazolin-4-yl)-phenyl]-(3-methyl-pyridin-2-yl)methanol]

IC50 [4]: 10 to 30 µM
Compound: NC(=O)Cn1nc(C(O)c2cc(-c3ncnc4cc(N5CCOCC5)ccc34)c(F)cc2Cl)ccc1=O (centres unmarked) [Example 98, 2-(3-{[2-Chloro-4-fluoro-5-(7-morpholin-4-ylquinazolin-4-yl)-phenyl]hydroxymethyl}-6-oxo-6H-pyridazin-1-yl)acetamide]

IC50 [3]: < 0.5 µM
Compound: OC(c1cccnn1)c1cc(-c2ncnc3cc(N4CCOCC4)ccc23)ccc1Cl (centres unmarked) [Example 470, [2-Chloro-5-(7-morpholin-4-yl-quinazolin-4-yl)-phenyl]pyridazin-3-yl-methanol]

IC50 [5]: < 0.5 µM
Compound: CC(C#N)Oc1ccc(C(O)c2cc(-c3ncnc4cc(N5CCOCC5)ccc34)c(F)cc2Cl)nn1 (single isomer, unassigned) [Example 102, 2-(6-{[2-Chloro-4-fluoro-5-(7-morpholin-4-yl-quinazolin-4-yl)-phenyl]hydroxy-methyl}pyridazin-3-yloxy)propionitrile]

IC50 [6]: 10 to 30 µM
Compound: COc1ccc([C@H](O)c2cc(-c3ncnc4cc(N5CCOCC5)ccc34)c(F)cc2Cl)nn1 [Example 135, (R)-[2-Chloro-4-fluoro-5-(7-morpholin-4-yl-quinazolin-4-yl)-phenyl]-(6-methoxy-pyridazin-3-yl)-methanol]

IC50 [3]: < 0.5 µM
Compound: COc1ccc(C(O)c2cc(-c3ncnc4cc(N5CCOCC5)ccc34)ccc2Cl)nn1 (centres unmarked) [Example 460, [2-Chloro-5-(7-morpholin-4-yl-quinazolin-4-yl)-phenyl]-(6-methoxy-pyridazin-3-yl)-methanol]

IC50 [2]: 0.5 to 5 µM
Compound: OC(c1cc(-c2ncnc3cc(N4CCOCC4)ccc23)c(F)cc1F)c1ncnc2ccoc12 (centres unmarked) [Example 444, [2,4-Difluoro-5-(7-morpholin-4-yl-quinazolin-4-yl)-phenyl]furo[3,2-d}-pyrimidin-4-yl-methanol]

IC50 [4]: 0.5 to 5 µM
Compound: COc1ccc(C(OC)c2ccc(F)c(-c3ncnc4cc(N5CCOCC5)ccc34)c2)nn1 (centres unmarked) [Example 73, 4-{2-Fluoro-5-[methoxy-(6-methoxy-pyridazin-3-yl)methyl]phenyl}-7-morpholin-4-yl-quinazoline]
